Laboratory results reported in US4277465A, “Adjuvant for promoting absorption of therapeutically active substances through the digestive tract” (Kyoto Yakuhin Kogyo Kabushiki Kaisha, priority 1978, dated 1981).
Values joined by “and” are separate entries in the source; they are usually repeats but may differ in a detail not shown here. Identical values can stand only once.

What was measured:
[1] = Stability in aqueous solution (half-life of enamine derivatives); type: physicochemical; conditions: pH 7.4 phosphate buffer, μ 0.15, 25° C., UV absorption spectrometry; "stable" = enamine structure retained even after 6 hours
Procedure: To examine the stability in water of the enamine derivatives (I) obtained above, some representative compounds were selected and their half-lives [t 0.5 (min.)] in pH 7.4 phosphate buffer (μ: 0.15, temp.: 25° C.) were determined by ultraviolet absorption spectrometry. In the Table, "stable" means that the enamine structure was retained even after 6 hours.

[2] = Rectal suppositories of AB-PC-Na with enamine derivative, concentration in blood; type: in vivo; conditions: AB-PC-Na 75mg, dog
Procedure: These suppositories were rectally administered to dogs and the absorbabilities of the active components were investigated by measuring the blood concentrations. The blood concentrations were measured in conformity with the biological assay method in the Antibiotic Standard of Japan. The cup method was employed with Sarcina lutea for penicillins and Bacillus subtilis for cephalosporins.

[3] = Rectal ointment of CEX.H2O with enamine derivative, blood concentration; type: in vivo, rabbit; conditions: rectal ointment CEX.H2O 20%, enamine derivative 10%, dose 50 mg CEX.H2O/kg
Procedure: (§1) AB-PC and cephalexin (briefly, CEX), both of which are sparingly absorbed from the rectum, are also tested. Thus, enamine derivatives (I) and these antibiotics were used to prepare rectal ointments in accordance with established practice. The ointments were administered to rabbits to investigate the peak blood concentrations (μg/ml) and AUC (μg.min./ml).
Dose: 50 mg CEX . H2 O/kg

[4] = Rectal ointment of AB-PC.Na with enamine derivative, blood concentration; type: in vivo, rabbit; conditions: rectal ointment AB-PC.Na 10%, enamine derivative 10%, dose 15 mg AB-PC.Na/kg
Procedure: as §1
Dose: 15mg AB-PC . Na/kg
Compounds 3, 5, 13 and 14 were used as said enamine derivatives (I) in Recipes 4, 5, 6 and 7, respectively.

[5] = Rectal ointment of CET-Na with enamine derivative, blood concentration; type: in vivo, rabbit; conditions: for AUC / Peak blood concentration: CET, rectal ointment CET.Na 20%, enamine derivative 10%, dose 50 mg CET.Na/kg
Procedure: Cephalothin sodium (briefly CET-Na), a drug which is sparingly absorbed from the rectum, was selected for a test. Thus, CET-Na was dispersed in liquid paraffin-white vaseline base to prepare rectal ointment. The ointment was administered to rabbits by the rectal route. […] The blood concentration was measured in conformity with the biological assay method in the Antibiotic Standard of Japan. […]

[6] = Rectal insulin suppository with Compound 3, blood glucose concentration (glucoseoxidase method); type: in vivo, rabbit; conditions: 3 I.U. insulin per animal + Compound 3 0.05 g in Witepsol H-15
Procedure: The test was conducted by the glucoseoxidase method. […] The largest depression of blood glucose from the pre-medication level was expressed in % response.

[7] = Rectal inulin suppository with adjuvant, urinary recovery of inulin; type: in vivo, rabbit
Procedure: The above components were used to prepare a suppository in accordance with established pharmaceutical practice. The suppository was rectally administered to rabbits (body weights 2.0-2.5 kg) and the blood concentrations were determined.
The results, shown in FIG. 7, indicates the versatility of enamine derivative (I). The amount of inulin excreted in the urine was 18% of the dose administered.
(§2) The following dosage forms (dispersed in Witepsol H-15®) were rectally administered to dogs and humans to measure the urinary recovery rates of inulin. […] The test was carried out by the Lunt method.

[8] = Oral capsule of AB-PC sodium with adjuvant, blood concentration of AB-PC; type: in vivo; conditions: AB-PC sodium 15 mg/kg + Compound 3 10 mg/kg, one value per rabbit, sodium salt
Procedure: Ampicillin (briefly, AB-PC) sodium
Capsules each containing the above indicated amounts of components were prepared by the conventional procedure and administrered to 3 rabbits. Immediately thereafter, each animal was given 20 ml of water and the concentration of AB-PC in the blood was measured by the biological assay method. In the figure, white circles represent AB-PC alone and black circles represent the capsule according to this invention.
The blood concentrations were measured in conformity with the Antibiotic Standard of Japan. The cup method was employed with Sarcina lutea.

[9] = Rectal inulin dosage form with adjuvant, urinary recovery of inulin; type: in vivo, dog; conditions: in Witepsol H-15, level of addition of enamine derivative 5%, Lunt method
Procedure: as §2

[10] = as above; type: in vivo, human; conditions: Lunt method
Procedure: as §2

[11] = Rectal suppositories of CET-Na with enamine derivative, concentration in blood; type: in vivo; conditions: dog
Procedure: These suppositories were rectally administered to dogs and the absorbabilities of the active components were investigated by measuring the blood concentrations.
The blood concentrations were measured in conformity with the biological assay method in the Antibiotic Standard of Japan. The cup method was employed with Sarcina lutea for penicillins and Bacillus subtilis for cephalosporins.

[12] = Rectal insulin suppositories (Recipes 35-41), glucose response; type: in vivo; conditions: rectal suppository 6 I.U. insulin, enamine derivative 0.025g (5%)
Source text: These suppositories were rectally administered to rabbits (R, 2.5-3kg) and dogs (D, 12-13kg).

[13] = enamine derivative 120mg (10%), base SB-W 1005mg
[14] = CET-Na 500mg, enamine derivative 150mg (10%), base Witepsol H-15 850mg
[15] = CET-Na 75mg, enamine derivative 60mg (5%), base SB-W 1065mg
[16] = enamine derivative 60mg, base SB-W 1065mg

CCOC(=O)C=C(C)N[C@@H](CCC(=O)[O-])C(=O)[O-].[Na+].[Na+] [Compound 16, N-(1-Methyl-2-ethoxycarbonylvinyl)-L-glutamic acid sodium salt]
half-life t 0.5 [1]: 16.3 min
Concentration in blood, 15 min. [2, 13]: 690 ng/mL
Concentration in blood, 30 min. [2, 13]: 480 ng/mL
Concentration in blood, 60 min. [2, 13]: 520 ng/mL
Concentration in blood, 120 min. [2, 13]: 290 ng/mL

CCOC(=O)C=C(C)N1CCC[C@H]1C(=O)[O-].[Na+] [Compound 13, N-(1-Methyl-2-ethoxycarbonylvinyl)-L-proline sodium salt]
AUC [3]: 733 µg·min/mL
Peak blood concentration [3]: 6.5 µg/mL
AUC [4]: 108 µg·min/mL
Peak blood concentration [4]: 2.6 µg/mL
AUC [5]: 25 µg·min/mL
Peak blood concentration [5]: 2.5 µg/mL
half-life t 0.5 [1]: 3.1 min

CCOC(=O)C(=CN[C@@H](C(=O)[O-])c1ccccc1)C(=O)OCC.[Na+] [Compound 5, N-[2,2-bis(ethoxycarbonyl)vinyl]-D-phenylglycine sodium salt]
AUC [4]: 149 µg·min/mL
Peak blood concentration [4]: 4.7 µg/mL
AUC [5]: 306 µg·min/mL
Peak blood concentration [5]: 6.1 µg/mL
half-life t 0.5 [1]: Stable

CCOC(=O)C=C(C)N[C@@H](C(=O)[O-])c1ccccc1.[Na+] [Compound 3, N-(1-Methyl-2-ethoxycarbonylvinyl)-D-phenylglycine sodium salt]
reduction of blood glucose concentration from the pre-medication level [6]: about 50%
% Urinary recovery ([7]; inulin, rectal, in Witepsol H-15, level of addition of enamine derivative 10%, Lunt method): 8%
amount of inulin excreted in the urine ([7]; rectal suppository, inulin 0.25 g + Compound 3 0.05 g in Witepsol H-15): 18 % of the dose administered
AUC [4]: 270 µg·min/mL
Peak blood concentration [4]: 4.8 µg/mL
AUC [5]: 445 µg·min/mL
Peak blood concentration [5]: 14.4 µg/mL
change in blood concentration of CET (in words) ([5]; rectal ointment CET-Na 20%, Compound 3 10%, dose 50 mg CET-Na/kg, FIG. 3): high CET level in the blood could by very quickly achieved
half-life t 0.5 [1]: 26.1 min
area under the blood-concentration curve (AUC) of AB-PC relative to AB-PC alone [8]: 1.52 times and 1.99 times and 1.73 times
% Urinary recovery [9]: 20%
% Urinary recovery ([10]; in Witepsol H-15, level of addition of enamine derivative 1%): 11%

CCOC(=O)C=C(C)NCCCC(=O)[O-].[Na+] [Compound 2, N-(1-Methyl-2-ethoxycarbonylvinyl)-γ-aminobutyric acid sodium salt]
AUC [3]: 278 µg·min/mL
Peak blood concentration [3]: 6.7 µg/mL
AUC [5]: 315 µg·min/mL
Peak blood concentration [5]: 6.3 µg/mL
half-life t 0.5 [1]: 18.8 min

CCOC(=O)C=C(C)NCC(=O)NCC(=O)[O-].[Na+] [Compound 15, N-(1-Methyl-2-ethoxycarbonylvinyl)glycylglycine sodium salt]
AUC [5]: 102 µg·min/mL
Peak blood concentration [5]: 1.8 µg/mL
half-life t 0.5 [1]: 31.8 min

CCCCOC(=O)C1=C(N[C@@H](C(=O)[O-])c2ccccc2)CCC1.[Na+] [Compound 7, N-(2-Butoxycarbonyl-1-cyclopenten-1-yl)-D-phenylglycine sodium salt]
half-life t 0.5 [1]: Stable

CCOC(=O)C=C(C)NC(Cc1ccccc1)C(=O)[O-].[Na+] (racemic) [Compound 10, N-(1-Methyl-2-ethoxycarbonylvinyl)-DL-phenylalanine sodium salt]
half-life t 0.5 [1]: 15.7 min
Concentration in blood, 15 min. [11, 14]: 15300 ng/mL
Concentration in blood, 30 min. [11, 14]: 11730 ng/mL
Concentration in blood, 60 min. [11, 14]: 6750 ng/mL
Concentration in blood, 120 min. [11, 14]: 2200 ng/mL

CC(=O)C=C(C)N[C@@H](C(=O)[O-])c1ccccc1.[Na+] [Compound 4, N-(1-Methyl-2-acetylvinyl)-D-phenylglycine sodium salt]
AUC [5]: 568 µg·min/mL
Peak blood concentration [5]: 11.0 µg/mL
half-life t 0.5 [1]: Stable

CCOC(=O)C=C(C)NCCS(=O)(=O)[O-].[Na+] [Compound 14, N-(1-Methyl-2-ethoxycarbonylvinyl)taurine sodium salt]
AUC [4]: 239 µg·min/mL
Peak blood concentration [4]: 5.9 µg/mL
AUC [5]: 250 µg·min/mL
Peak blood concentration [5]: 7.8 µg/mL
half-life t 0.5 [1]: 24.0 min

CC(N[C@@H](C(=O)[O-])c1ccccc1)=C1CCOC1=O.[Na+] [Compound 6, N-[1-(Tetrahydro-2-furanone-3-ylidene)ethyl]-D-phenylglycine sodium salt]
half-life t 0.5 [1]: 478 min

CCOC(=O)C=C(C)NCCCC[C@H](NC(C)=CC(=O)OCC)C(=O)[O-].[Na+] [Compound 17, N,N'-Bis(1-methyl-2-ethoxycarbonylvinyl)-L-lysine sodium salt]
AUC [5]: 396 µg·min/mL
Peak blood concentration [5]: 8.7 µg/mL
half-life t 0.5 [1]: 22.9 min

CCOC(=O)C=C(C)N[C@@H](C(=O)OC)c1ccccc1 [Compound 8, Methyl-N-(1-methyl-2-ethoxycarbonylvinyl)-D-phenylglycinate]
AUC [5]: 49 µg·min/mL
Peak blood concentration [5]: 3.8 µg/mL

CCOC(=O)C(C)OC(=O)C=C(C)NCC(=O)[O-].[Na+] (stereo not drawn) [Compound 32, N-[1-Methyl-2-(1-ethoxycarbonyl-ethoxycarbonyl)vinyl]glycine sodium salt]
Blood glucose response (6 I.U.) ([12]; dog 12-13kg): 30-40%
Time course: Lowest level ([12]; dog 12-13kg): 30 to 60 min
Time course: Onset ([12]; dog 12-13kg): 30 min
Time course: Return to pre-medication level ([12]; dog 12-13kg): 120 min
Blood glucose response (6 I.U.) ([12]; rabbit 2.5-3kg): 45-55%
Time course: Lowest level ([12]; rabbit 2.5-3kg): 45 to 60 min
Time course: Onset ([12]; rabbit 2.5-3kg): 15 min
Time course: Return to pre-medication level ([12]; rabbit 2.5-3kg): 150 min
Concentration in blood, 15 min. [11, 15]: 1500 ng/mL
Concentration in blood, 30 min. [11, 15]: 1120 ng/mL
Concentration in blood, 60 min. [11, 15]: 730 ng/mL
Concentration in blood, 120 min. [11, 15]: 400 ng/mL

CCOC(=O)C=C(C)NCC(=O)[O-].[Na+] [Compound 1, N-(1-Methyl-2-ethoxycarbonylvinyl)glycine sodium salt]
half-life t 0.5 [1]: 3.7 min
% Urinary recovery ([10]; in Witepsol H-15, level of addition of enamine derivative 2%): 12%
Concentration in blood, 15 min. [2, 16]: 1230 ng/mL
Concentration in blood, 30 min. [2, 16]: 870 ng/mL
Concentration in blood, 60 min. [2, 16]: 610 ng/mL
Concentration in blood, 120 min. [2, 16]: 320 ng/mL
